One assay has as its target NS3/4A protease gt 3a (Hepatitis C virus genotype 3a, UniProt Q81258). In words: HCV NS3 protease time-resolved fluorescence (TRF) assay, NS3/4A inhibitory activity (Ki), gt 3a. It counts as biochemical. The conditions noted are these: genotype 3a NS3/4A; read-out: Enzyme Activity gt 3a Ki. How it is done:
(§1) The HCV NS3 protease inhibitory activity of the present compounds may be tested using assays known in the art. One such assay is HCV NS3 protease time-resolved fluorescence (TRF) assay as described below and in International Patent Application Publication WO2006/102087. Other examples of such assays are described in e.g., International Patent Application Publication WO2005/046712. HCV NS3 protease inhibitors, such as those described herein have a Ki less than 50 μM, such as less than 10 μM, and less than 100 nM. Ki is determined by an NS3 protease assay. The assay is performed in a final volume of 100 μl in assay buffer containing 50 mM HEPES, pH 7.5, 150 mM NaCl, 15% glycerol, 0.15% TRITON X-100, 10 mM DTT, and 0.1% PEG 8000. NS3 protease is pre-incubated with various concentrations of inhibitors in DMSO for 30 minutes. The reaction is initiated by adding the TRF peptide substrate (final concentration 100 nM). NS3 mediated hydrolysis of the substrate is quenched after 1 hour at room temperature with 100 μl of 500 mM MES, pH 5.5. Product fluorescence is detected using either a VICTOR V2 or FUSION fluorophotometer (Perkin Elmer Life and Analytical Sciences) with excitation at 340 nm and emission at 615 nm with a 400 μs delay. Testing concentrations of different enzyme forms are selected to result in a signal to background ratio (S/B) of 10-30. IC50 values are derived using a standard four-parameter fit to the data. Ki values are derived from IC50 values using the following formula,
(§2) IC50=Ki(1+[S]/KM), Eqn (1),
(§3) where [S] is the concentration of substrate peptide in the reaction and KM is the Michaelis constant. See P. Gallinari et al., 38 BIOCHEM. 5620-32 (1999); P. Gallinari et al., 72 J. VIROL. 6758-69 (1998); M. Taliani et al., 240 ANAL. BIOCHEM. 60-67 (1996).
(§4) One such assay is HCV NS3 protease time-resolved fluorescence (TRF) assay as described below and in Mao et al., Anal Biochem. 373:1-8, 2008 and International Patent Application Publication WO 2006/102087. A NS3 protease assay can be performed, for example, in a final volume of 100 μl assay buffer containing 50 mM HEPES, pH 7.5, 150 mM NaCl, 15% glycerol, 0.15% TRITON X-100, 10 mM DTT, and 0.1% PEG 8000. NS3 and NS4A protease is pre-incubated with various concentrations of inhibitors in DMSO for 30 minutes. The reaction is initiated by adding the TRF peptide substrate (final concentration 100 nM). NS3 mediated hydrolysis of the substrate is quenched after 1 hour at room temperature with 100 μl of 500 mM MES, pH 5.5. Product fluorescence is detected using either a VICTOR V2 or FUSION fluorophotometer (Perkin Elmer Life and Analytical Sciences) with excitation at 340 nm and emission at 615 nm with a 400 μs delay. Testing concentrations of different enzyme forms are selected to result in a signal to background ratio (S/B) of 10-30. IC50 values are derived using a standard four-parameter fit to the data. Ki values are derived from IC50 values using the following formula,
(§5) where [S] is the concentration of substrate peptide in the reaction and KM is the Michaelis constant. See P. Gallinari et al., 38 BIOCHEM. 5620-32 (1999); P. Gallinari et al., 72 J. VIROL. 6758-69 (1998); M. Taliani et al., 240 ANAL. BIOCHEM. 60-67 (1996); Mao et al., Analytical Biochemistry 373: 1-8, 2008. Measuring Compound Inhibitory Potency (Replicon EC50 (nM))

Another assay deals with NS3/4A protease gt 1b (Hepatitis C virus genotype 1b, UniProt P26663). As to the kind of experiment: HCV NS3 protease time-resolved fluorescence (TRF) assay, NS3/4A inhibitory activity (Ki), gt 1b. It counts as biochemical. The conditions noted are these: genotype 1b NS3/4A; read-out: Enzyme Activity gt 1b Ki. The protocol: as §1, §2, §3, §4, §5
Another assay has as its system gt 1b Replicon. As to the kind of experiment: HCV replicon assay, compound inhibitory potency (Replicon EC50). In kind it is cell-based. As to conditions: Hepatitis C virus, GT1B. The protocol: Measurement of inhibition by compounds was performed using the HCV replicon system. Several different replicons encoding different HCV genotypes or mutations were used. In addition, potency measurements were made using different formats of the replicon assay, including different ways of measurements and different plating formats. See Jan M. Vrolijk et al., A replicons-based bioassay for the measurement of interferons in patients with chronic hepatitis C, 110 J. VIROLOGICAL METHODS 201 (2003); Steven S. Carroll et al., Inhibition of Hepatitis C Virus RNA Replication by 2′-Modified Nucleoside Analogs, 278(14) J. BIOLOGICAL CHEMISTRY 11979 (2003). However, the underlying principles are common to all of these determinations, and are outlined below.
Stable neomycin phosphotransferase encoding replicon-harboring cell lines were used, so all cell lines were maintained under G418 selection prior to the assay. In some cases the cell lines encoded a luciferase:Neor fusion and could be assayed either directly by determination of RNA copy number, or indirectly through measurement of the luciferase activity.
To initiate an assay, replicon cells were plated in the presence of a dilution series of test compound in the absence of G418. Typically, the assays were performed in a 96-well plate format for manual operation, or a 384 well plate in an automated assay. Replicon cells and compound were incubated for 24-48 hours, depending on the assay. At the end of the assay, cells are washed free of media and compound and then lysed. For direct quantitation, RNA levels were measured by ^32P-probe hybridization and protection, or in a TAQMAN based assay and normalized to cellular cyclophilin A RNA levels. In some cases, luciferase activity was measured using a conventional luciferase assay. In all cases EC50 determinations were calculated as a percent of a DMSO control by fitting the data to a four parameter fit function.

Assay [1] deals with NS3/4A protease gt 1b A156V (Hepatitis C virus genotype 1b, UniProt P26663, A1182V). In words: HCV NS3 protease time-resolved fluorescence (TRF) assay, NS3/4A inhibitory activity (Ki), gt 1b A156V mutant. In kind it is biochemical, hepatitis C virus (HCV). How it is done:
as §1, §2, §3, §4, §5

Like-named read-outs stand apart in the source and are kept apart here.

In the case of `C=C[C@@H]1C[C@]1(NC(=O)[C@@H]1C[C@@H]2CN1C(=O)[C@H](C(C)(C)C)NC(=O)O[C@@]1(C)C[C@@H]1CCCCCc1nc3ccccc3nc1O2)C(=O)NS(=O)(=O)C1CC1` [Example I-9, (1aS,5S,8S,10R,22aS)-5-tert-butyl-N-{(1R,2S)-1-[(cyclopropylsulfonyl)carbamoyl]-2-ethenylcyclopropyl}-1a-methyl-3,6-dioxo-1,1a,3,4,5,6,9,10,18,19, 20,21,22,22a-tetra decahydro-8H-7,10-methanocyclopropa[18, 19][1,10,3,6]dioxadiaza cyclononadecino[11,12-b]quinoxaline-8-carboxamide], the Ki came to 12.5 nM at NS3/4A protease gt 3a and 0.06 nM at NS3/4A protease gt 1b.
As for `CC[C@@H]1C[C@]1(NC(=O)[C@@H]1C[C@@H]2CN1C(=O)[C@H](C(C)(C)C)NC(=O)O[C@]1(C)C[C@H]1CCCCCc1nc3ccc(OC)cc3cc1O2)C(=O)NS(=O)(=O)C1CC1` [Example I-11], the results for the Ki on NS3/4A protease gt 3a and on NS3/4A protease gt 1b were 0.5 nM and 0.03 nM, respectively. Moreover, the EC50 with gt 1b Replicon (10% Fetal Bovine Serum, read-out: gt 1b Replicon EC50 10% FBS) stood at 4 nM; in the assay with gt 1b Replicon (50% Normal Human Serum, read-out: gt 1b Replicon EC50 50% NHS) it was 7 nM.
For `C=C[C@@H]1C[C@]1(NC(=O)[C@@H]1C[C@@H]2CN1C(=O)[C@H](C(C)(C)C)NC(=O)O[C@@]1(C)C[C@@H]1CC/C=C/c1cccc3c1CN(C3)C(=O)O2)C(=O)NS(=O)(=O)C1CC1` [Example I-14, (1aS,5S,8S,10R,19E,22aS)-5-tert-butyl-N-{(1R,2S)-1-[(cyclopropylsulfonyl)carbamoyl]-2-ethenylcyclopropyl}-1a-methyl-3,6,12-trioxo-1,1a,3,4,5,6,9, 10,14,21,22,22a-dodecahydro-8H-7,10:13,15-dimethano cyclopropa[n][4,13,2,8, 11]benzodioxatriaza cyclohenicosine-8(12H)-carboxamide], the Ki on NS3/4A protease gt 3a turned out to be 112 nM; on NS3/4A protease gt 1b, 0.08 nM; in assay [1], 6.3 nM.
The corresponding values for `C=C[C@@H]1C[C@]1(NC(=O)[C@@H]1C[C@@H]2CN1C(=O)[C@H](C(C)(C)C)NC(=O)O[C@]1(C)C[C@H]1CC/C=C/c1cccc3c1CN(C3)C(=O)O2)C(=O)NS(=O)(=O)C1CC1` [Example I-15, (1aR,5S,8S,10R,19E,22aR)-5-tert-butyl-N-{(1R,2S)-1-[(cyclopropylsulfonyl)carbamoyl]-2-ethenylcyclopropyl}-1a-methyl-3,6,12-trioxo-1,1a,3,4,5,6,9, 10,14,21,22,22a-dodecahydro-8H-7,10: 13,15-dimethanocyclo propa[n][4,13,2,8,11] benzodioxatriazacyclo henicosine-8(12H)-carboxamide] are 93.5 nM, 0.09 nM and 8.9 nM.
In the case of `C=C[C@@H]1C[C@]1(NC(=O)[C@@H]1C[C@@H]2CN1C(=O)[C@H](C1CCCC1)NC(=O)O[C@]1(C)CCC[C@H]1CC/C=C/Cc1c(nc3ccccc3c1OCc1ccccc1)O2)C(=O)NS(=O)(=O)C1CC1` [Example I-17, (3aR,7S,10S,12R,21E, 24aS)-19-(benzyloxy)-7-cyclopentyl-N-{(1R,2S)-1-[(cyclopropylsulfonyl)carbamoyl]-2-ethenylcyclopropyl}-3a-methyl-5,8-dioxo-1,2,3,3a,5,6,7,8,11,12, 20,23,24,24a-tetradeca hydro-10H-9,12-methanocyclopenta[18, 19][1,10,3,6]dioxadiaza cyclononadecino[11,12-b]quinoline-10-carboxamide], the Ki came out at 27.9 nM on NS3/4A protease gt 3a, 0.07 nM on NS3/4A protease gt 1b and 9.6 nM in assay [1].
For `C=C[C@@H]1C[C@]1(NC(=O)[C@@H]1C[C@@H]2CN1C(=O)[C@H](C(C)(C)C)NC(=O)O[C@]1(C)C[C@H]1CCCCc1cccc3c1CN(C3)C(=O)O2)C(=O)NS(=O)(=O)C1CC1` [Example I-20, (1aR,5S,8S,10R,22aR)-5-tert-butyl-N-{(1R,2S)-1-[(cyclopropylsulfonyl)carbamoyl]-2-ethenylcyclopropyl}-1a-methyl-3,6,12-trioxo-1,1a,3,4,5,6,9, 10,14,19,20,21,22,22a-tetradecahydro-8H-7,10:13,15-dimethano cyclopropa[n][4,13,2,8, 11]benzodioxatriaza cyclohenicosine-8(12H)-carboxamide] the same measures were 58.3 nM, 0.02 nM and 27.2 nM.
For `C=C[C@@H]1C[C@]1(NC(=O)[C@@H]1C[C@@H]2CN1C(=O)[C@H](C(C)(C)C)NC(=O)O[C@@]1(C)C[C@@H]1CCCCc1cccc3c1CN(C3)C(=O)O2)C(=O)NS(=O)(=O)C1CC1` [Example I-21, (1aS,5S,8S,10R,22aS)-5-tert-butyl-N-{(1R,2S)-1-[(cyclopropylsulfonyl)carbamoyl]-2-ethenylcyclopropyl}-1a-methyl-3,6,12-trioxo-1,1a,3,4,5,6,9,10,14,19,20,21,22,22a-tetradecahydro-8H-7,10:13,15-dimethano cyclopropa[n][4,13,2,8, 11]benzodioxatriaza cyclohenicosine-8(12H)-carboxamide] the same measures were 300 nM, 1.4 nM and 8.1 nM.
The corresponding values for `C=C[C@@H]1C[C@]1(NC(=O)[C@@H]1C[C@@H]2CN1C(=O)[C@H](C1CCCC1)NC(=O)O[C@@]1(C)C[C@@H]1CC/C=C/Cn1c(nc3cc(C)ccc3c1=O)O2)C(=O)NS(=O)(=O)C1CC1` [Example I-22, (1aS,5S,8S,10R,20E,23aS)-5-cyclopentyl-N-{(1R,2S)-1-[(cyclopropylsulfonyl)carbamoyl]-2-ethenylcyclopropyl}-1a,14-dimethyl-3,6,17-trioxo-1,1a,3,4,5,6,9,10,19,22,23,23a-dodecahydro-8H,17H-7,10-methano cyclopropa[18,19] [1,10,3,6,12]dioxatriaza cyclononadecino[11,12-b]quinazoline-8-carboxamide] are 82.2 nM, 0.3 nM and 135 nM.

Source of the values: patent US20130178413A1, “HCV NS3 PROTEASE INHIBITORS” (priority 2010, published 2013).
